Assay results from patent publication US6194378A, “Fibronectin peptides-based extracellular matrix for wound healing” (The Research Foundation of State University of New York, priority 1998, dated 2001).

Key:
[1] = system: human adult dermal fibroblasts; test: two-dimensional outmigration of fibroblasts from contracted collagen gels over protein coated surfaces; format: cell-based; settings: for effect of synthetic peptide added to the outmigration assay on migration of fibroblasts onto dried FN: FN coated plates
Description: (§1) Primary cultures of human adult dermal fibroblasts, acquired from Marcia Simon (Living Skin Bank, SUNY at Stony Brook), the ATCC (Bethesda, Md.), or the NIA (Bethesda, Md.), are cultured in Dulbecco's modified Eagle's medium (DMEM, Life Technologies) containing 42 mM sodium bicarbonate and supplemented with 100 U/ml penicillin, 100 μg/ml streptomycin, and 10% fetal bovine serum (FBS, HyClone, Logan, Utah), at 37° C. and 5% CO2 /95% air in a humidified atmosphere. The cells are used between passages 4 and 12.
(§2) Fibroblast cultures at 80% confluence are harvested by treatment with 0.05% trypsin/0.01% EDTA. Trypsin is inactivated by addition of soy bean trypsin inhibitor in PBS containing 0.2% BSA. The cells are washed twice with DMEM+2% BSA and resuspended at a concentration of 1×10^6 cells/ml. The fibroblasts are mixed with neutralized collagen (Vitrogen 100, Celtrix Labs., Santa Clara, Calif.), 2% BSA, 30 ng/ml PDGF-BB, 30 μg/ml fibronectin, and concentrated DMEM so that the final concentration of DMEM and sodium bicarbonate is 1x. 600 μl of the cell mixture is added to the wells of a 24-well tissue culture plate, which has been precoated with 2% BSA. The collagen is allowed to polymerize at 37° C. The final concentration of collagen is 1.8 mg/ml and each gel contains 6×10^4 cells. After two hours incubation, the gels are gently detached from the plastic surface to allow contraction with the addition of 0.5 ml DMEM+2% BSA and 30 ng/ml PDGF-BB per well. The gels are incubated overnight at 37° C. in 100% humidity, 5% CO2 and 95% air.
(§3) Fibronectin, its fragments or recombinant domains were diluted with concentrated DMEM to the appropriate concentration. Aliquots of 450 μl protein solution are added to the wells of 24-well tissue culture plates (Becton-Dickinson, Lincoln Park, N.J.). After a 2 hour incubation at 37° C. in 5% CO2, plates were dried overnight at room temperature under sterile conditions.
Plates coated with dried proteins were washed once with PBS and incubated with 2% BSA for 1 hour at 37° C. to block nonspecific binding sites. After washing the plates three times with PBS, contracted-collagen gel organotypic constructs were attached to the coated plates. DMEM, 2% BSA and 30 ng/ml PDGF-BB was added to assay plates so that the medium was level with the top of the collagen gel.
For preparation of "gold standard" transmigration assays containing a dermal organotypic construct surrounded by a fibrin clot as previously described (Greiling and Clark 1997), dried fibrin fibril-coated dishes are washed once with PBS and fibroblast-contracted collagen gels are placed on the surface. Fibrinogen, at a final concentration of 300 μg/ml, is mixed with DMEM and 1.0 U/ml thrombin, added to the wells so that the solution is level with the top of the collagen gel, and allowed to clot at room temperature for 30 min. When needed, other supplements such as 30 ng/ml PDGF-BB are added to the mixture. […] All migration assays are quantified after a 24 hour incubation at 37° C. in 100% humidity, 5% CO2 and 95% air.
The number of migrated cells was quantified under a Nikon inverted phase microscope by visually counting identifiable cell nuclei located outside of the contracted collagen gel in the fibrin gel (transmigration assay) or on the matrix (outmigration assay). Within a given experiment each condition was run in triplicate and means ±SD calculated. […] Statistical differences among conditions can be determined by ANOVA.

corneal epithelial wound = settings: cited from earlier work
[2] = system: human adult dermal fibroblasts; test: fibroblast adhesion assay; format: cell-based
Description: as §1, §3
Assay plates are prepared as described under fibroblast migration assays. The assay for measuring fibroblast adhesion to matrix proteins are performed essentially as described (Gailit et al. 1993) except that the cell concentration is lowered to 100,000 cells/ml or 10,000 cells/well. […] The absorbance at 590 nm is measured with a dual wavelength microtiter plate reader (THERMOmax, Molecular Devices, Menlo Park, Calif.) and the reading corrected for light scattering by subtraction of the absorbance at 450 nm.

[3] = system: human adult dermal fibroblasts; test: three-dimensional transmigration from collagen gel into fibrin gel; format: cell-based
Description: as §1, §2
For preparation of "gold standard" transmigration assays containing a dermal organotypic construct surrounded by a fibrin clot as previously described (Greiling and Clark 1997), dried fibrin fibril-coated dishes are washed once with PBS and fibroblast-contracted collagen gels are placed on the surface. Fibrinogen, at a final concentration of 300 μg/ml, is mixed with DMEM and 1.0 U/ml thrombin, added to the wells so that the solution is level with the top of the collagen gel, and allowed to clot at room temperature for 30 min. When needed, other supplements such as 30 ng/ml PDGF-BB are added to the mixture. For HA 3-dimensional transmigration, wells are coated overnight at 37° C. with an appropriate solution of HA. The next day a fibroblast-contracted collagen gel is placed on the HA-coated well in DMEM, with or without 30 ng/ml PDGF-BB, is added so that the solution is level with the top of the collagen gels. All migration assays are quantified after a 24 hour incubation at 37° C. in 100% humidity, 5% CO2 and 95% air.
The number of migrated cells was quantified under a Nikon inverted phase microscope by visually counting identifiable cell nuclei located outside of the contracted collagen gel in the fibrin gel (transmigration assay) or on the matrix (outmigration assay). Within a given experiment each condition was run in triplicate and means ±SD calculated. All experiments were repeated at least three times. Statistical differences among conditions can be determined by ANOVA.
The extracellular matrix of the present invention was tested by use of the in vitro model as described in U.S. patent application Ser. No. 08/723,789, which is hereby incorporated by reference. The basis of the in vitro model is a contracted collagen gel containing fibroblasts which acquire a tissue-like phenotype within the collagen matrix. Surrounding the collagen gel, or dermal equivalent, with a fibrin clot produces a simple inside-outside model of the early cutaneous wound (FIG. 1). Without an added stimulus, no more than a few of the normal adult human dermal fibroblasts within the collagen gel would migrate into the fibrin gel. […]

CS1: synthetic peptide from the IIICS segment of FN, SEQ ID NO:3 as tested
effect of synthetic peptide added to the outmigration assay on migration of fibroblasts onto dried FN [1]: slightly enhancing effect in the higher concentrations

chondroitin sulfate
effect on wound closure (corneal epithelial wound): did not affect wound closure

fibronectin [FN]
effect of reduction and alkylation of FN dimer to the monomeric state on ability to mediate migration [1]: did not affect | percent migration of that observed on FN, no additional protein added to plates ([1]; plates coated with 120 nmol/l protein, mean ± SD, triplicate, FN normalized to 100%): 100 ± 2.7% | effect of reduction and alkylation of FN dimer to the monomeric state on ability to mediate adhesion [2]: did not affect | transmigration on inclusion of FN in the collagen gel and in the fibrin gel ([3]; 30 μg/ml FN in each gel): restored transmigration to a normal level | transmigration on addition of FN to the FN-depleted fibrin gel ([3]; FN added to fibrin gel): restored | FN concentration giving optimal cell movement ([3]; FN added to fibrin gel, FN:fibrinogen ratio 1:10): 30 µg/mL | most effective FN concentration in each gel ([3]; FN in both collagen gel and fibrin gel, 10, 30, or 100 μg/ml tested): 30 µg/mL | decrease of fibroblast transmigration into the fibrin clot after removal of FN ([3]; FN removed from fibrinogen by gelatin affinity chromatography, 30 ng/ml PDGF-BB): about 80% | transmigration with FN-free collagen gels ([3]; serum omitted, collagen gel contracted with PDGF-BB): no transmigration occurred

peptide I: synthetic peptide from the heparin II binding domain of FN, SEQ ID NO:6 (YEKPGSPRREVVPRPRGV)
effect of synthetic peptide added to the outmigration assay on migration of fibroblasts onto dried FN [1]: inhibited the migration of fibroblasts onto dried FN in a dose-dependent manner | effect of synthetic peptide on migration over collagen ([1]; collagen coated assay plates): inhibitory effect in a dose-dependent manner
